Data reported in US5538876A, “Stabilization of carboxyl esterase” (Gist-brocades, N.V., priority 1989, dated 1996).

molecular target: T1, carboxyl esterase (Bacillus subtilis, UniProt Q59248); assay: Effect of chemical modifier on carboxyl esterase stability; type: biochemical; conditions: used as chemical group to modify the enzyme
T1 construct: document's preparation is from B. subtilis 1-85/pNAPT-7 (cloned Thai I-8 gene)
T1 sequence (Q59248 1-300): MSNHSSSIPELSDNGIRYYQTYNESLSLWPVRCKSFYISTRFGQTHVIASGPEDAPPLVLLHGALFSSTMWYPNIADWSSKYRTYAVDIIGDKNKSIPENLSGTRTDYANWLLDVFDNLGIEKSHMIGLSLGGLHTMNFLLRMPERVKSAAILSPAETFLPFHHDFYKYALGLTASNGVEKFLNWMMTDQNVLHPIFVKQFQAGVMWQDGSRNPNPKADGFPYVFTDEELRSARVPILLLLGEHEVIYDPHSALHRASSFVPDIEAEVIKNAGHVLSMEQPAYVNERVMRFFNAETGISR
Excerpt: In this respect it is to be noticed that only small and not too hydrophilic chemical groups can be used to modify the enzyme.

Structure (SMILES)	effect on enzyme stability (in words)
O=Cc1ccccc1 [Benzaldehyde]	does not have a positive effect on enzyme stability

molecular target: carboxyl esterase (Bacillus subtilis, UniProt Q59248); assay: Inactivation of carboxyl esterase by compounds; type: biochemical, Bacillus subtilis Thai 1-8; conditions: reaction conditions, commercially interesting concentrations
Description: The esterase as such is stable at pH=9 and T=40° C. (with and without Tween 80 (TM)) for several hours.

Structure (SMILES)	inactivation of carboxyl esterase by the compound (in words)
Oc1ccc2ccccc2c1 [2-naphthol]	inactivate the enzyme
Oc1ccccc1 [phenol]	inactivate the enzyme
O=C(O)COc1ccc2ccccc2c1 [2-naphthoxy acetic acid]	inactivate the enzyme
CC(Oc1ccc(Oc2ccc(Cl)cc2Cl)cc1)C(=O)O (stereo not drawn) [diclofop]	will inactivate the enzyme
CC(C)Cc1ccc(C(C)C(=O)O)cc1 (stereo not drawn) [ibuprofen, reference compound]	inactivate the enzyme
